Experimental data from the NIST ThermoML archive (doi:10.1021/je9010882).
Several values for one entry are separate records, joined by “and”; a condition that tells them apart may be missing. Equal values may be shown once.

What was measured:
[1] = 101 kPa, Liquid; for speed of sound: Pulse-echo method
[2] = xn = mol fraction of the nth substance listed; settings: 101 kPa, Liquid; for speed of sound: Pulse-echo method

OCCO [1,2-ethanediol]
[1]
Settings | mass density [kg/m3] | speed of sound
293.15 K | 1113.37 | –
298.15 K | – | 1654.4 m/s and 1655.2 m/s

CCCCC(CC)CO (stereo not given) [2-ethyl-1-hexanol] + OCCO
[2], 298.15 K
Settings | mass density [kg/m3] | speed of sound [m/s]
x2 = 0 | 828.667 | 1318.4
x2 = 0.1858 | 848.929 | 1334.2
x2 = 0.2952 | 863.973 | 1345.5
x2 = 0.4043 | 881.937 | 1358.8
x2 = 0.4512 | 890.807 | –
x2 = 0.4914 | 899.091 | 1372.4
x2 = 0.599 | 924.736 | 1394.9
x2 = 0.6996 | 954.672 | 1423.5
x2 = 0.7985 | 991.938 | 1468.2
x2 = 0.8507 | 1015.69 | –
x2 = 0.9 | 1041.98 | 1539.4

CCCCCCCO [heptan-1-ol]
[1], 298.15 K
Settings | mass density [kg/m3] | speed of sound [m/s]
– | 818.793 | 1327

CCCCCCCCCO [nonan-1-ol]
[1], Vibrating tube method
Settings | mass density [kg/m3]
293.15 K | 827.65
298.15 K | 824.238

OCCO [1,2-ethanediol] + CCCCCCCO
Settings | speed of sound [m/s]
[2], 298.15 K, x1 = 1 | 1655.2

OCCO [1,2-ethanediol] + CCO
[2], 298.15 K
Settings | mass density [kg/m3] | speed of sound [m/s]
x1 = 0.1002 | 819.39 | 1187.5
x1 = 0.198 | 852.357 | 1231.7
x1 = 0.3014 | 886.918 | 1279.7
x1 = 0.3462 | 901.797 | –
x1 = 0.3998 | – | 1328
x1 = 0.4944 | 950.526 | 1374.9
x1 = 0.6428 | 998.611 | 1454.5
x1 = 0.7499 | 1032.4 | 1513.4
x1 = 0.8498 | 1063.88 | 1569.5
x1 = 1 | – | 1654.4

CCO [ethanol] + OCCO
[2], 298.15 K, x2 = 0
Settings | mass density [kg/m3] | speed of sound [m/s]
– | 785.144 | 1142

CCCCCCCO [heptan-1-ol] + OCCO
[2], 298.15 K
Settings | mass density [kg/m3] | speed of sound [m/s]
x2 = 0 | 818.793 | 1327
x2 = 0.0668 | 826.183 | 1330.3
x2 = 0.1162 | 832.262 | –
x2 = 0.2007 | 843.633 | 1339.2
x2 = 0.2946 | 858.174 | 1346.9
x2 = 0.4022 | 877.754 | 1359.6
x2 = 0.4834 | 895.05 | 1371.6
x2 = 0.5508 | 911.359 | 1384.3
x2 = 0.6087 | 927.049 | 1398.5
x2 = 0.6766 | 948.151 | 1418.2
x2 = 0.7988 | 994.195 | 1470.8
x2 = 0.894 | 1041.3 | 1538

CCCCC(CC)CO (stereo not given) [2-ethyl-1-hexanol]
[1], 298.15 K
Settings | mass density [kg/m3] | speed of sound [m/s]
– | 828.667 | 1318.4

CCO [ethanol]
[1], 298.15 K
Settings | mass density [kg/m3] | speed of sound [m/s]
– | 785.144 | 1142

CCCCCCCCCO [nonan-1-ol] + OCCO
mass density [kg/m3], [2]
Settings | x2 = 0 | x2 = 0.1047 | x2 = 0.204 | x2 = 0.2878 | x2 = 0.3927 | x2 = 0.5203 | x2 = 0.5982 | x2 = 0.703 | x2 = 0.7805 | x2 = 0.9004
293.15 K | 827.65 | 837.118 | 847.778 | 858.547 | 874.431 | 898.673 | 917.33 | 948.15 | 977.295 | 1038.17
298.15 K | 824.238 | 833.672 | 844.308 | 855.056 | 870.919 | 895.129 | 913.771 | 944.568 | 973.695 | 1034.58

OCCO [1,2-ethanediol] + CCCCC(CC)CO
Settings | speed of sound [m/s]
[2], 298.15 K, x1 = 1 | 1655.2

OCCO [1,2-ethanediol] + CCCCCCCCCO
Settings | mass density [kg/m3]
[2], 293.15 K, x1 = 1 | 1113.37
